From EP3722296B1, “DIHYDRONAPHTHYRIDINES AND RELATED COMPOUNDS USEFUL AS KINASE INHIBITORS FOR THE TREATMENT OF PROLIFERATIVE DISEASES” (Deciphera Pharmaceuticals, LLC, priority 2012, dated 2013)

Experiments:
[1] = tested on: Phospho-KIT (Tyr719); assay: GIST48 KIT Western Blot; format: cell-based; details: GIST48 cells, 4 hours, serum-free medium; read-out: pKIT suppression by western blot analysi GIST48
Experimental: (§1) GIST48, GIST430, and GIST882 cells were obtained from J. Fletcher (Brigham and Women's Hospital, Boston, MA). GIST T1 cells were obtained from B. Rubin (Cleveland Clinic, Cleveland, OH) and Professor Takahiro Taguchi (Kochi Medical School, Nankoku, Kochi, Japan). […] GIST430 cells were grown in Ham's F10 medium supplemented with 15% characterized fetal bovine serum (Invitrogen, Carlsbad, CA), 30 mg/L bovine pituitary extract (BD Biosciences, San Jose, CA), 0.5% Mito+ serum extender (BD Biosciences, San Jose, CA), 1 unit/mL penicillin G, 1 µg/ml streptomycin, and 0.29 mg/mL L-glutamine at 37 °C, 5%CO2, 95% humidity. GIST T1 cells were grown in DMEM medium supplemented with 10% characterized fetal bovine serum (Invitrogen, Carlsbad, CA), 1 unit/mL penicillin G, 1 µg/ml streptomycin, and 0.29 mg/mL L-glutamine at 37 °C, 5% CO2, and 95% humidity.
(§2) Two hundred fifty thousand cells were added per well in a 24-well tissue-culture treated plate. […] Medium was aspirated, cells were washed with PBS, and serum-free RPMI1640 medium was added. […] Cells were washed with PBS, then lysed. Cell lysates were separated by SDS-PAGE and transferred to PVDF. Phospho-KIT (Tyr719) was detected using an antibody from Cell Signaling Technology (Beverly, MA), ECL Plus detection reagent (GE Healthcare, Piscataway, NJ) and a Molecular Devices Storm 840 phosphorimager in fluorescence mode. Blots were stripped and probed for total KIT using an antibody from Santa Cruz Biotech (Santa Cruz, CA). IC50 values were calculated using Prism software (Graphpad, San Diego, CA).

[2] = tested on: Phospho-KIT (Tyr719); assay: GIST430 KIT Western Blot; format: cell-based; details: GIST430 cells, 4 hours, serum-free medium; read-out: pKIT suppression by western blot analysi GIST430
Experimental: as §1
as §2, with “One” for “Two”, “Ham's F10” for “RPMI1640”

[3] = target: T1, c-KIT D816H kinase (Homo sapiens, UniProt P10721, D816H); assay: c-KIT D816H Kinase Assay; format: biochemical; details: enzymatic assay, ATP 200 µM
T1 construct: The construct contains residues T544-V976 of cKit; GST (N); TEV cleavage site (internal); purchased deCODE Biostructures
T1 sequence (P10721 544-976 D816H): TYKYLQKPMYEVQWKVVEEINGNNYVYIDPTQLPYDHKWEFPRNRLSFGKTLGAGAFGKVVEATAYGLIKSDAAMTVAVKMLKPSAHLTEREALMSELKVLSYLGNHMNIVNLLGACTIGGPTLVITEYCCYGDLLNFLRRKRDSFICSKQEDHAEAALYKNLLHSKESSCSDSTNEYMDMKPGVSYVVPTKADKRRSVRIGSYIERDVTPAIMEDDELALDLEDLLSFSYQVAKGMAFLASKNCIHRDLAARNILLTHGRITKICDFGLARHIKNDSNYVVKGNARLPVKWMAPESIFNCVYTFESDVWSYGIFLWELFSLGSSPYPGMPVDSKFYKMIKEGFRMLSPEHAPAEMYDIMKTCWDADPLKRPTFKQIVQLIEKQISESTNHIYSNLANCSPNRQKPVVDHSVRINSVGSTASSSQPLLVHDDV
Outline: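 Coupled spectrophotometric assay following NADH oxidation as absorbance decrease at 340 nm, monitored continuously for 6 hours at 30 °C after adding serially diluted compound. Enzyme: mutant cKit construct with N-terminal tag, GST fusion and TEV cleavage site.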

[4] = target: T2, c-KIT D816V kinase (Homo sapiens, UniProt P10721, D816V); assay: c-KIT D816V kinase Assay; format: biochemical; details: enzymatic assay, ATP 200 uM
T2 construct: residues T544-V976 with N-terminal GST fusion; purchased deCODE Biostructures
T2 sequence (P10721 544-976 D816V): as the sequence (P10721 544-976 D816H) above, with H273V counted along it
Outline: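 Coupled assay in which NADH oxidation was tracked as decreasing absorbance at 340 nm, continuously for 5 hours at 30 °C after adding serially diluted compound. Enzyme: cKit residues T544-V976 with N-terminal tag, GST fusion and TEV cleavage site.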

[5] = target: c-KIT kinase (Homo sapiens, UniProt P10721); assay: c-KIT kinase Assay; format: biochemical; parameters: cKIT residues T544-V976; GST (N); TEV cleavage site (internal); purchased deCODE Biostructures; details: enzymatic assay, ATP 200 µM; read-out: KIT (wt) IC50
Chain of c-KIT kinase (P10721 544-976): as the sequence (P10721 544-976 D816H) above, with H273D counted along it
Outline: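 Activity of wild-type human c-KIT kinase was followed as NADH oxidation, read as falling absorbance at 340 nm on a Synergy 2 plate reader (BioTeK) for 2 hours at 30 °C. Rates from the 0 to 1 h window were compared with an uninhibited control to give percent inhibition. IC50 values were fitted in GraphPad Prism across a range of inhibitor concentrations.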

[6] = target: T3, c-KIT T670I kinase (Homo sapiens, UniProt P10721, T670I); assay: c-KIT T670I kinase assay; format: biochemical; details: enzymatic assay
T3 construct: The construct contains residues T544-V976 of cKit; GST (N); TEV cleavage site (internal); purchased deCODE Biostructures
T3 sequence (P10721 544-976 T670I): as the sequence (P10721 544-976 D816H) above, with T127I, H273D counted along it
Outline: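 Coupled spectrophotometric assay following NADH oxidation as absorbance decrease at 340 nm, monitored continuously for 5 h at 30 °C after adding serially diluted compound. Enzyme is a cKit construct with N-terminal tag, GST fusion and TEV site, carrying the T670I mutation.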

[7] = target: T4, c-KIT V654A kinase (Homo sapiens, UniProt P10721, V654A); assay: c-KIT V654A Kinase Assay; format: biochemical; details: enzymatic assay, ATP 200 µM
T4 construct: residues T544-V976 with N-terminal GST fusion; purchased deCODE Biostructures
T4 sequence (P10721 544-976 V654A): as the sequence (P10721 544-976 D816H) above, with V111A, H273D counted along it
Outline: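 Construct: cKIT residues T544–V976 with N-terminal tag, GST fusion and TEV site. Reaction started by adding serially diluted compound to the enzyme mixture; NADH oxidation, coupled to kinase turnover, followed as the decrease in A340 for 6 h at 30 °C.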

[8] = tested on: GIST T1 cells; assay: GIST T1 Cell Proliferation Assay; format: cell-based; details: Homo sapiens, GISTT1, 72 h, 68 hours + 4 hours resazurin
Experimental: GIST48, GIST430, and GIST882 cells were obtained from J. Fletcher (Brigham and Women's Hospital, Boston, MA). GIST T1 cells were obtained from B. Rubin (Cleveland Clinic, Cleveland, OH) and Professor Takahiro Taguchi (Kochi Medical School, Nankoku, Kochi, Japan). Briefly, GIST48 and GIST 882 cells were grown in RPMI 1640 medium supplemented with 15% characterized fetal bovine serum (Invitrogen, Carlsbad, CA), 1 unit/mL penicillin G, 1 µg/ml streptomycin, and 0.29 mg/mL L-glutamine at 37 °C, 5% CO2, and 95% humidity. GIST430 cells were grown in Ham's F10 medium supplemented with 15% characterized fetal bovine serum (Invitrogen, Carlsbad, CA), 30 mg/L bovine pituitary extract (BD Biosciences, San Jose, CA), 0.5% Mito+ serum extender (BD Biosciences, San Jose, CA), 1 unit/mL penicillin G, 1 µg/ml streptomycin, and 0.29 mg/mL L-glutamine at 37 °C, 5%CO2, 95% humidity. GIST T1 cells were grown in DMEM medium supplemented with 10% characterized fetal bovine serum (Invitrogen, Carlsbad, CA), 1 unit/mL penicillin G, 1 µg/ml streptomycin, and 0.29 mg/mL L-glutamine at 37 °C, 5% CO2, and 95% humidity.
A serial dilution of test compound was dispensed into a 384-well black clear bottom plate (Corning, Corning, NY). One thousand two-hundred fifty cells were added per well in 50 µL complete growth medium. Plates were incubated for 68 hours at 37 °C, 5% CO2, 95% humidity. At the end of the incubation period 10 µL of a 440 µM solution of resazurin (Sigma, St. Louis, MO) in PBS was added to each well and incubated for an additional 4 hours at 37 °C, 5% CO2, 95% humidity. Plates were read on a Synergy2 reader (Biotek, Winooski, VT) using an excitation of 540 nm and an emission of 600 nm.

SMILES	IC50 [1]	IC50 [2]	IC50 [3]	IC50 [4]	IC50 [5]	IC50 [6]	IC50 [7]	IC50 [8]
CCn1c(=O)c(-c2cc(NC(=O)Nc3cccc(Cl)c3)c(F)cc2F)cc2cnc(NC)cc21 [Example 17, 1-(3-chlorophenyl)-3-(5-(1-ethyl-7-(methylamino)-2-oxo-1,2-dihydro-1,6-naphthyridin-3-yl)-2,4-difluorophenyl)urea]	10 to 100 nM	10 to 100 nM						
CCn1c(=O)c(-c2cc(NC(=O)Nc3cccc(CN4CCN(C)CC4)c3)c(F)cc2Cl)cc2cnc(NC)cc21 [Example 79, 1-(4-chloro-5-(1-ethyl-7-(methylamino)-2-oxo-1,2-dihydro-1,6-naphthyridin-3-yl)-2-fluorophenyl)-3-(3-((4-methylpiperazin-1-yl)methyl)phenyl)urea]	10 to 100 nM	10 to 100 nM						< 10 nM
CCn1c(=O)c(-c2cc(NC(=O)Nc3ccccc3)c(F)cc2F)cc2cnc(NC(C)=O)cc21 [Example 66, 1-(5-(7-acetamido-1-ethyl-2-oxo-1,2-dihydro-1,6-naphthyridin-3-yl)-2,4-difluorophenyl)-3-phenylurea]	100 to 1000 nM	10 to 100 nM						< 10 nM
CCn1c(=O)c(-c2cc(NC(=O)Nc3ccccc3)c(F)cc2Cl)cc2cnc(NCCCN(C)C)cc21 [Example 30, 1-(4-chloro-5-(7-(3-(dimethylamino)propylamino)-1-ethyl-2-oxo-1,2-dihydro-1,6-naphthyridin-3-yl)-2-fluorophenyl)-3-phenylurea]	100 to 1000 nM	10 to 100 nM						
CCn1c(=O)c(-c2cc(NC(=O)Nc3cc(F)cc(CN4CCN(C)CC4)c3)c(F)cc2Cl)cc2cnc(NC)cc21 [Example 88, 1-(4-chloro-5-(1-ethyl-7-(methylamino)-2-oxo-1,2-dihydro-1,6-naphthyridin-3-yl)-2-fluorophenyl)-3-(3-fluoro-5-((4-methylpiperazin-1-yl)methyl)phenyl)urea]	10 to 100 nM	10 to 100 nM						< 10 nM
CCn1c(=O)c(-c2cc(NC(=O)Nc3cc(F)cc(F)c3)c(F)cc2F)cc2cnc(NC)cc21 [Example 63, 1-(3,5-difluorophenyl)-3-(5-(1-ethyl-7-(methylamino)-2-oxo-1,2-dihydro-1,6-naphthyridin-3-yl)-2,4-difluorophenyl)urea]	100 to 1000 nM	10 to 100 nM		10 to 100 nM	< 10 nM	10 to 100 nM	< 10 nM	< 10 nM
CCn1c(=O)c(-c2cc(NC(=O)Nc3ccccc3)c(F)cc2Br)cc2cnc(NC(C)=O)cc21 [Example 53, 1-(5-(7-acetamido-1-ethyl-2-oxo-1,2-dihydro-1,6-naphthyridin-3-yl)-4-bromo-2-fluorophenyl)-3-phenylurea]	100 to 1000 nM	< 10 nM						< 10 nM

Second part, led by results:

IC50 [1]	IC50 [2]	IC50 [3]	IC50 [4]	IC50 [5]	IC50 [6]	IC50 [7]	SMILES	IC50 [8]
100 to 1000 nM	10 to 100 nM	10 to 100 nM	10 to 100 nM	10 to 100 nM	10 to 100 nM	100 to 1000 nM	CCn1c(=O)c(-c2cc(NC(=O)Nc3cc(F)cc(F)c3)c(F)cc2C)cc2cnc(NC(=O)N(C)C)cc21 [Example 108, 3-(3-(5-(3-(3,5-difluorophenyl)ureido)-4-fluoro-2-methylphenyl)-1-ethyl-2-oxo-1,2-dihydro-1,6-naphthyridin-7-yl)-1,1-dimethylurea]	
100 to 1000 nM	10 to 100 nM	< 10 nM	10 to 100 nM	< 10 nM	> 1000 nM	10 to 100 nM	CNc1cc2c(cn1)cc(-c1cc(NC(=O)Nc3cccc(F)c3)c(F)cc1C)c(=O)n2C(C)C [Example 41, 1-(2-fluoro-5-(1-isopropyl-7-(methylamino)-2-oxo-1,2-dihydro-1,6-naphthyridin-3-yl)-4-methylphenyl)-3-(3-fluorophenyl)urea]	
10 to 100 nM	< 10 nM						CCn1c(=O)c(-c2cc(NC(=O)Nc3ccccc3)c(F)cc2Cl)cc2cnc(N)cc21 [Example 21, 1-(5-(7-amino-1-ethyl-2-oxo-1,2-dihydro-1,6-naphthyridin-3-yl)-4-chloro-2-fluorophenyl)-3-phenylurea]	< 10 nM
100 to 1000 nM	10 to 100 nM		10 to 100 nM	< 10 nM	10 to 100 nM	10 to 100 nM	CCn1c(=O)c(-c2cc(NC(=O)Nc3cc(F)ccc3F)c(F)cc2Cl)cc2cnc(NC)cc21 [Example 68, 1-(4-chloro-5-(1-ethyl-7-(methylamino)-2-oxo-1,2-dihydro-1,6-naphthyridin-3-yl)-2-fluorophenyl)-3-(2,5-difluorophenyl)urea]	< 10 nM
